{"source": "ChEMBL document CHEMBL3272261", "about": "“Aminobenzioc acid diuretics. 8.(2) 3, 4-Disubstituted 5-methylsulfonylbenzioc acids and related compounds” (1976)", "key": {"[1]": {"system": "Canis familiaris", "experiment": "Saluretic activity in dog assessed as urinary excretion of sodium level at 0.25 mg/kg, iv after 3 hrs", "assay_type": "functional, Canis lupus familiaris, Urine"}, "[2]": {"system": "Canis familiaris", "experiment": "Saluretic activity in dog assessed as urinary excretion of sodium level at 0.1 mg/kg, iv after 3 hrs", "assay_type": "functional, Canis lupus familiaris, Urine"}, "[3]": {"system": "Canis familiaris", "experiment": "Saluretic activity in dog assessed as urinary excretion of potassium level at 0.25 mg/kg, iv after 3 hrs", "assay_type": "functional, Canis lupus familiaris, Urine"}, "[4]": {"system": "Canis familiaris", "experiment": "Saluretic activity in dog assessed as urinary excretion of potassium level at 1 mg/kg, iv after 3 hrs", "assay_type": "functional, Canis lupus familiaris, Urine"}, "[5]": {"system": "Canis familiaris", "experiment": "Saluretic activity in dog assessed as urinary excretion of sodium level at 1 mg/kg, iv after 3 hrs", "assay_type": "functional, Canis lupus familiaris, Urine"}, "[6]": {"system": "Canis familiaris", "experiment": "Diuretic activity in dog assessed as urine volume measured in water at 0.25 mg/kg, iv after 3 hrs", "assay_type": "functional, Canis lupus familiaris"}, "[7]": {"system": "Canis familiaris", "experiment": "Diuretic activity in dog assessed as urine volume measured in water at 0.1 mg/kg, iv after 3 hrs", "assay_type": "functional, Canis lupus familiaris"}, "[8]": {"system": "Canis familiaris", "experiment": "Saluretic activity in dog assessed as urinary excretion of chloride level at 0.25 mg/kg, iv after 3 hrs", "assay_type": "functional, Canis lupus familiaris, Urine"}, "[9]": {"system": "Canis familiaris", "experiment": "Saluretic activity in dog assessed as urinary excretion of potassium level at 0.1 mg/kg, iv after 3 hrs", "assay_type": "functional, Canis lupus familiaris, Urine"}, "[10]": {"system": "Canis familiaris", "experiment": "Saluretic activity in dog assessed as urinary excretion of chloride level at 0.1 mg/kg, iv after 3 hrs", "assay_type": "functional, Canis lupus familiaris, Urine"}, "[11]": {"system": "Canis familiaris", "experiment": "Saluretic activity in dog assessed as urinary excretion of chloride level at 1 mg/kg, iv after 3 hrs", "assay_type": "functional, Canis lupus familiaris, Urine"}, "[12]": {"system": "Canis familiaris", "experiment": "Diuretic activity in dog assessed as urine volume measured in water at 1 mg/kg, iv after 3 hrs", "assay_type": "functional, Canis lupus familiaris"}, "[13]": {"system": "Canis familiaris", "experiment": "Saluretic activity in dog assessed as urinary excretion of chloride level at 0.1 mg/kg, po after 3 hrs", "assay_type": "functional, Canis lupus familiaris, Urine"}, "[14]": {"system": "Canis familiaris", "experiment": "Diuretic activity in dog assessed as urine volume measured in water at 0.1 mg/kg, po after 3 hrs", "assay_type": "functional, Canis lupus familiaris"}, "[15]": {"system": "Canis familiaris", "experiment": "Saluretic activity in dog assessed as urinary excretion of sodium level at 0.1 mg/kg, po after 3 hrs", "assay_type": "functional, Canis lupus familiaris, Urine"}, "[16]": {"system": "Canis familiaris", "experiment": "Saluretic activity in dog assessed as urinary excretion of potassium level at 0.1 mg/kg, po after 3 hrs", "assay_type": "functional, Canis lupus familiaris, Urine"}, "[17]": {"system": "Canis familiaris", "experiment": "Diuretic activity in dog assessed as urine volume measured in water at 10 mg/kg, iv after 3 hrs", "assay_type": "functional, organism-based", "parameters": "dose 10 mg/kg", "conditions": "Canis lupus familiaris"}, "[18]": {"system": "Canis familiaris", "experiment": "Diuretic activity in dog assessed as urine volume measured in water at 0.01 mg/kg, iv after 3 hrs", "assay_type": "functional, Canis lupus familiaris"}, "[19]": {"system": "Canis familiaris", "experiment": "Saluretic activity in dog assessed as urinary excretion of sodium level at 0.01 mg/kg, iv after 3 hrs", "assay_type": "functional, Canis lupus familiaris, Urine"}, "[20]": {"system": "Canis familiaris", "experiment": "Saluretic activity in dog assessed as urinary excretion of potassium level at 0.01 mg/kg, iv after 3 hrs", "assay_type": "functional, Canis lupus familiaris, Urine"}, "[21]": {"system": "Canis familiaris", "experiment": "Saluretic activity in dog assessed as urinary excretion of chloride level at 0.01 mg/kg, iv after 3 hrs", "assay_type": "functional, Canis lupus familiaris, Urine"}, "[22]": {"system": "Canis familiaris", "experiment": "Diuretic activity in dog assessed as urine volume measured in water at 1 mg/kg, po after 3 hrs", "assay_type": "functional", "conditions": "Canis lupus familiaris"}}, "note": "Calls of active or inactive are those of the source. The rule behind the calls is not given here.", "data": [{"smiles": "CS(=O)(=O)c1cc(C(=O)O)cc(NCc2ccccc2)c1Oc1ccccc1", "values": [{"measurement": "Activity", "setting": "[1]", "result": 3, "unit": "milliequivalent/kg"}, {"measurement": "Activity", "setting": "[2]", "result": 1.1, "unit": "milliequivalent/kg"}, {"measurement": "Activity", "setting": "[3]", "result": 0.99, "unit": "milliequivalent/kg"}, {"measurement": "Activity", "setting": "[4]", "result": 0.98, "unit": "milliequivalent/kg"}, {"measurement": "Activity", "setting": "[5]", "result": 4.8, "unit": "milliequivalent/kg"}, {"measurement": "Activity", "setting": "[6]", "result": 21, "unit": "mL/kg"}, {"measurement": "Activity", "setting": "[7]", "result": 9, "unit": "mL/kg"}, {"measurement": "Activity", "setting": "[8]", "result": 3.5, "unit": "milliequivalent/kg"}, {"measurement": "Activity", "setting": "[9]", "result": 0.2, "unit": "milliequivalent/kg"}, {"measurement": "Activity", "setting": "[10]", "result": 1.4, "unit": "milliequivalent/kg"}, {"measurement": "Activity", "setting": "[11]", "result": 5.1, "unit": "milliequivalent/kg"}, {"measurement": "Activity", "setting": "[12]", "result": 31, "unit": "mL/kg"}]}, {"smiles": "CS(=O)(=O)c1cc(C(=O)O)cc(OCc2ccccc2)c1C(=O)c1ccccc1", "values": [{"measurement": "Activity", "setting": "[13]", "result": 1.7, "unit": "milliequivalent/kg"}, {"measurement": "Activity", "setting": "[14]", "result": 11, "unit": "mL/kg"}, {"measurement": "Activity", "setting": "[15]", "result": 1.2, "unit": "milliequivalent/kg"}, {"measurement": "Activity", "setting": "[16]", "result": 0.25, "unit": "milliequivalent/kg"}]}, {"smiles": "CS(=O)(=O)c1cc(C(=O)O)c(NCc2ccco2)cc1Oc1ccccc1", "values": [{"measurement": "Activity", "setting": "[4]", "result": 0.39, "unit": "milliequivalent/kg"}, {"measurement": "Activity", "setting": "[5]", "result": 1.7, "unit": "milliequivalent/kg"}, {"measurement": "Activity", "setting": "[11]", "result": 2, "unit": "milliequivalent/kg"}, {"measurement": "Activity", "setting": "[12]", "result": 14, "unit": "mL/kg"}]}, {"smiles": "O=C(O)c1cc(NCc2ccccc2)c2c(c1)S(=O)(=O)CC2(O)c1ccccc1", "note": "(stereo not drawn)", "values": [{"measurement": "Activity", "setting": "[12]; Canis lupus familiaris", "result": "inactive"}]}, {"smiles": "CCCCNc1cc(C(=O)O)cc2c1C(c1ccccc1)=CS2(=O)=O", "values": [{"measurement": "Activity", "setting": "[12]; Canis lupus familiaris", "result": "inactive"}]}, {"smiles": "CSc1cc(C(=O)O)cc(NCc2ccccc2)c1Oc1ccccc1", "values": [{"measurement": "Activity", "setting": "[4]", "result": 0.21, "unit": "milliequivalent/kg"}, {"measurement": "Activity", "setting": "[5]", "result": 0.6, "unit": "milliequivalent/kg"}, {"measurement": "Activity", "setting": "[11]", "result": 0.9, "unit": "milliequivalent/kg"}, {"measurement": "Activity", "setting": "[12]", "result": 7, "unit": "mL/kg"}]}, {"smiles": "CS(=O)(=O)c1cc(C(=O)O)c(NCc2ccccc2)cc1Sc1ccccc1", "values": [{"measurement": "Activity", "setting": "[17]", "result": "inactive"}]}, {"smiles": "CS(=O)(=O)c1cc(C(=O)O)cc(NCc2ccccc2)c1Sc1ccccc1", "values": [{"measurement": "Activity", "setting": "[1]", "result": 0.9, "unit": "milliequivalent/kg"}, {"measurement": "Activity", "setting": "[3]", "result": 0.18, "unit": "milliequivalent/kg"}, {"measurement": "Activity", "setting": "[4]", "result": 0.28, "unit": "milliequivalent/kg"}, {"measurement": "Activity", "setting": "[5]", "result": 2, "unit": "milliequivalent/kg"}, {"measurement": "Activity", "setting": "[6]", "result": 6, "unit": "mL/kg"}, {"measurement": "Activity", "setting": "[8]", "result": 1, "unit": "milliequivalent/kg"}, {"measurement": "Activity", "setting": "[11]", "result": 2.4, "unit": "milliequivalent/kg"}, {"measurement": "Activity", "setting": "[12]", "result": 17, "unit": "mL/kg"}]}, {"smiles": "CS(=O)(=O)c1cc(C(=O)O)c(NCc2ccccc2)cc1Nc1ccccc1", "values": [{"measurement": "Activity", "setting": "[17]", "result": "inactive"}]}, {"smiles": "CCCCNc1cc(C(=O)O)cc(S(N)(=O)=O)c1Oc1ccccc1", "note": "[BUMETANIDE]", "values": [{"measurement": "Activity", "setting": "[13]", "result": 4.5, "unit": "milliequivalent/kg"}, {"measurement": "Activity", "setting": "[18]", "result": 10, "unit": "mL/kg"}, {"measurement": "Activity", "setting": "[1]", "result": 4, "unit": "milliequivalent/kg"}, {"measurement": "Activity", "setting": "[2]", "result": 2.4, "unit": "milliequivalent/kg"}, {"measurement": "Activity", "setting": "[14]", "result": 31, "unit": "mL/kg"}, {"measurement": "Activity", "setting": "[3]", "result": 0.84, "unit": "milliequivalent/kg"}, {"measurement": "Activity", "setting": "[15]", "result": 3.3, "unit": "milliequivalent/kg"}, {"measurement": "Activity", "setting": "[19]", "result": 0.92, "unit": "milliequivalent/kg"}, {"measurement": "Activity", "setting": "[6]", "result": 39, "unit": "mL/kg"}, {"measurement": "Activity", "setting": "[7]", "result": 26, "unit": "mL/kg"}, {"measurement": "Activity", "setting": "[8]", "result": 5.7, "unit": "milliequivalent/kg"}, {"measurement": "Activity", "setting": "[9]", "result": 0.44, "unit": "milliequivalent/kg"}, {"measurement": "Activity", "setting": "[20]", "result": 0.27, "unit": "milliequivalent/kg"}, {"measurement": "Activity", "setting": "[10]", "result": 3.5, "unit": "milliequivalent/kg"}, {"measurement": "Activity", "setting": "[21]", "result": 1.4, "unit": "milliequivalent/kg"}, {"measurement": "Activity", "setting": "[16]", "result": 0.49, "unit": "milliequivalent/kg"}]}, {"smiles": "CS(=O)(=O)c1cc(C(=O)O)cc(SCc2ccccc2)c1Sc1ccccc1", "values": [{"measurement": "Activity", "setting": "[22]", "result": "inactive"}]}]}
